According to ChEMBL document CHEMBL1132736, “Identification of optimal anion spacing for anti-HIV activity in a series of cosalane tetracarboxylates” (Bioorg Med Chem Lett, 2000):

Tests used:
Conditions in all cases: Homo sapiens
MT4 [1] = experiment: Effective concentration of compound required to reduce the cytopathic effect of HIV-2ROD in MT-4 cells by 50%; format: functional, cell-based
CEM-SS [2] = experiment: Concentration of compound required to reduce the cellular viability in uninfected CEM-SS cells by 50%; format: functional
CEM-SS [3] = experiment: Effective concentration of compound required to reduce the cytopathic effect of HIV-1RF in CEM-SS cells by 50%; format: functional, cell-based
MT4 [4] = experiment: Concentration of compound required to reduce the cellular viability in uninfected MT-4 cells by 50%; format: functional
MT4 [5] = experiment: Effective concentration of compound required to reduce the cytopathic effect of HIV-1 IIIB in MT-4 cells by 50%; format: functional, cell-based

Row | SMILES | EC50 (MT4 [1]) [µM] | CC50 (CEM-SS [2]) [µM] | EC50 (CEM-SS [3]) [µM] | CC50 (MT4 [4]) [µM] | EC50 (MT4 [5]) [µM]
1 | CC(C)CCCC(C)[C@H]1CC[C@H]2[C@@H]3CCC4C[C@@H](CCC=C(c5cc(Cl)c(OCc6ccc(CC(=O)O)cc6)c(C(=O)O)c5)c5cc(Cl)c(OCc6ccc(CC(=O)O)cc6)c(C(=O)O)c5)CC[C@]4(C)[C@H]3CC[C@]12C (stereo not given in full) | 124 | 133 | 1.78 | > 125 | 4.4
2 | CC(C)CCCC(C)[C@H]1CC[C@H]2[C@@H]3CCC4C[C@@H](CCC=C(c5cc(Cl)c(OCc6ccc(-c7cccc(C(=O)O)c7)cc6)c(C(=O)O)c5)c5cc(Cl)c(OCc6ccc(-c7cccc(C(=O)O)c7)cc6)c(C(=O)O)c5)CC[C@]4(C)[C@H]3CC[C@]12C (stereo not given in full) | > 95 | > 200 | 6.11 | 95 | 14.5
3 | CC(C)CCCC(C)[C@H]1CC[C@H]2[C@@H]3CCC4C[C@@H](CCC=C(c5cc(Cl)c(O)c(C(=O)O)c5)c5cc(Cl)c(O)c(C(=O)O)c5)CC[C@]4(C)[C@H]3CC[C@]12C (stereo not given in full) |  | > 200 |  | > 200 | 
4 | CC(C)CCCC(C)[C@H]1CC[C@H]2[C@@H]3CCC4C[C@@H](CCC=C(c5cc(Cl)c(OCc6ccc(C(=O)O)cc6)c(C(=O)O)c5)c5cc(Cl)c(OCc6ccc(C(=O)O)cc6)c(C(=O)O)c5)CC[C@]4(C)[C@H]3CC[C@]12C (stereo not given in full) | 22 | 72 |  | 88 | 
5 | CC(C)CCCC(C)[C@H]1CC[C@H]2[C@@H]3CCC4C[C@@H](CCC=C(c5cc(Cl)c(OCc6cccc(C(=O)O)c6)c(C(=O)O)c5)c5cc(Cl)c(OCc6cccc(C(=O)O)c6)c(C(=O)O)c5)CC[C@]4(C)[C@H]3CC[C@]12C (stereo not given in full) |  | > 316 |  | 29 | 
6 | CC(C)CCCC(C)[C@H]1CC[C@H]2[C@@H]3CCC4C[C@@H](CCC=C(c5cc(Cl)c(OCc6ccccc6C(=O)O)c(C(=O)O)c5)c5cc(Cl)c(OCc6ccccc6C(=O)O)c(C(=O)O)c5)CC[C@]4(C)[C@H]3CC[C@]12C (stereo not given in full) |  | > 316 | 39.8 | 37 | 
7 | CC(C)CCCC(C)[C@H]1CC[C@H]2[C@@H]3CCC4C[C@@H](CCC=C(c5cc(Cl)c(OCc6ccc(-c7ccc(C(=O)O)cc7)cc6)c(C(=O)O)c5)c5cc(Cl)c(OCc6ccc(-c7ccc(C(=O)O)cc7)cc6)c(C(=O)O)c5)CC[C@]4(C)[C@H]3CC[C@]12C (stereo not given in full) | > 80 | > 100 | > 100 | 80 | > 80
8 | CC(C)CCCC(C)[C@H]1CC[C@H]2[C@@H]3CCC4C[C@@H](CCC=C(c5cc(Cl)c(OCc6ccc(-c7ccccc7C(=O)O)cc6)c(C(=O)O)c5)c5cc(Cl)c(OCc6ccc(-c7ccccc7C(=O)O)cc6)c(C(=O)O)c5)CC[C@]4(C)[C@H]3CC[C@]12C (stereo not given in full) | > 125 | > 200 | 5.17 | > 125 | 12.1
